The test system of data set [1] is Pyloric Ligation Ulcer. Briefly: Effect on Pyloric Ligation Ulcer. It counts as in vivo, Wistar strain male rats. Set-up: key to Grade Index G.I. mean ± S.E.: ulcer grade 0–V by eye; larger = more ulcers, V = perforation. The method, then:
According to the method of Shay et al. described in Gastroenterology, Vol 5, p. 43 (1945), Wistar strain male rats each weighing about 300 g were not given any diet for 48 hours, and then their pyloric segments were ligated. After 15 hours, the abdomen of each of the rats was opened, and the stomach was excised. The stomach was cut open along the side of the greater curvature, and the ulcers developed on the fore-stomach were classified and evaluated with the naked eye into five stages. The larger ulcer index means the more ulcers and index V refers to an example of perforation. The medicines were evaluated by determining their mean ±standard error. […] Cimetidine and propantheline were selected as control medicines.
(Note) In Table 2, Grade Index was evaluated on the basis of the size,
number, and severity of ulcers.

Data set [2] concerns gastric acid secretion. The data set can be described thus: Gastric acid secretion inhibiting effect (pylorus-ligated rats, method of Shay). Format: in vivo, Wistar strain male rats. Particulars: for inhibition in vivo at 100 mg/kg: Rattus norvegicus, 100 mg/μg (so in the source), to the duodenum during pyloric ligation, 4 hours, vs control group. The method, then:
According to the method of H. Shay et a. described in Gastroenterology, Vol. 5, p. 43 (1945), Wistar strain male rats each weighing about 200 g were not given any diet for 24 hours, and their pyloric segments were ligated under etherization. After four hours, the stomachs were excised under deep etherization, and the contents of the stomachs were collected. After determination of the amount, the gastric juice was centrifuged at 3,000 rpm for 10 minutes and the supernatant liquid was titrated by neutralization (at a pH 7.0) with N/50-NaOH by means of an automatic titrator (TTA 81, Radiometer, Copenhagen) to determine the acidity. The amount of the acid which had been secreted for four hours was calculated from the volume of the gastric juice and the acidity. The results are represented in terms of % inhibition with respect to the control group. Each of the compounds tested was emulsified in a 25% decaglyn mixture (polyglycerin fatty acid ester), and 100 mg/μg (dose 0.2 ml/100 g weight) was administered to the duodenum during the ligation of the pyloric segment. In the control group, only the solvent was administered.

For data set [3], the system named is Ethanol-Induced Ulcer. Briefly: Effect on Ethanol-Induced Ulcer. It counts as in vivo, Wistar male rats. Here is the method: According to the method of Robert et al., 1 ml/rat of absolute ethanol was administered orally to each of Wistar male rats. After one hour, the stomach of each rat was excised, 10 ml of physiologically saline solution was injected into the stomach, and the stomach was soaked in 5% neutral formalin. Each stomach was cut open along the side of the greater curvature, and the ulcers developed on the glandular stomach were measured for their lengths and the total sum of the lengths was defined as ulcer index.
Compound B, i.e. N-(2,6,10,14-tetramethyl-18-oxo-2,6,10,14-nonadecatetraenoyl)diethylamine,and compound F, i.e. N-(2,6,10,14-tetramethyl-18-oxo-2,6,10,14-nonadecatetraenoyl)pyrrolidine, were selected as test compounds and emulsified in 2.5% decaglyn mixture, and 12.5 to 100 mg/kg (dose volume 0.2 ml/100 g-weight) was administered orally 30 minutes before administration of ethanol.

The nature of data set [4]: in vivo. Particulars: mouse, po.
Where [5] appears, read: 100 mg/kg, 15 hours after pylorus ligation.
The mark [6] stands for this setting: 100 mg/kg, N 4 (Compound B), N 10 (Cimetidine).
The mark [7] stands for this setting: 12.5 mg/kg orally 30 minutes before ethanol.
Setting [8] is: 25 mg/kg orally 30 minutes before ethanol.
[9] abbreviates: 50 mg/kg orally 30 minutes before ethanol.
Setting [10] is: 100 mg/kg orally 30 minutes before ethanol.

We go through 14 compounds from US4782151A, “Polyprenyl compound and pharmaceutical use” (Eisai Co., Ltd., priority 1984, dated 1988).

The inhibition in vivo is the percentage by which the read-out fell short of the control. As usually defined, the LD50 is the dose at which mortality reaches 50%.

Regarding `CN/C(=N/CCSCc1nc[nH]c1C)NC#N` [Cimetidine, reference compound], the “Grade Index G.I. mean ± S.E.” value in data set [1] (setting [5]) amounted to 3.3 ± 0.7. Moreover, in data set [1] (setting [6]), the “Grade Index 0 (number of animals)” value came to 2, the “Grade Index I (number of animals)” value is 0, the “Grade Index II (number of animals)” value is 1 and the “Grade Index III (number of animals)” value worked out at 2. For the same compound, in data set [1] (setting [6]), the “Grade Index IV (number of animals)” value came to 0 and the “Grade Index V (number of animals; perforation)” value (“Grade Index V” for short) is recorded as 5.

In data set [2], `CC(=O)CCC=C(C)CCC=C(C)CCC=C(C)CCC=C(C)C(=O)N1CCOCC1` [Compound A] displayed an inhibition in vivo at 100 mg/kg of 52.9%.

For `CCN(CC)C(=O)C(C)=CCCC(C)=CCCC(C)=CCCC(C)=CCCC(C)=O` [Compound B, N-(2,6,10,14-tetramethyl-18-oxo-2,6,10,14-nonadecatetraenoyl)diethylamine], the “Inhibition (%) of ulcer index” value is reported as 82.6% in data set [3] (setting [7]), 97.6% in data set [3] (setting [8]), 90.4% in data set [3] (setting [9]) and 97.8% in data set [3] (setting [10]). Also, the “Ulcer Index Mean ± S.E. (mm)” value is recorded as 10.1 ± 5.9 mm in data set [3] (setting [7]), 1.4 ± 1.0 mm in data set [3] (setting [8]), 5.6 ± 2.9 mm in data set [3] (setting [9]) and 1.3 ± 1.0 mm in data set [3] (setting [10]). For the same compound, the “Grade Index 0 (number of animals)” value in data set [1] (25 mg/kg, N 6) is recorded as 2; in data set [1] (50 mg/kg, N 6) it was 2; in data set [1] (setting [6]), 4; in data set [1] (200 mg/kg, N 4), 4. In addition, the “Grade Index I (number of animals)” value in data set [1] (25 mg/kg, N 6) is on record as 1; in data set [1] (50 mg/kg, N 6), 3; in data set [1] (setting [6]), 0; in data set [1] (200 mg/kg, N 4), 0. For the same compound, the “Grade Index II (number of animals)” value is 2 in data set [1] (25 mg/kg, N 6); 0 in data set [1] (50 mg/kg, N 6); 0 in data set [1] (setting [6]); 0 in data set [1] (200 mg/kg, N 4). Further, the “Grade Index III (number of animals)” value in data set [1] (25 mg/kg, N 6) worked out at 0; in data set [1] (50 mg/kg, N 6) it was 0; in data set [1] (setting [6]), 0; in data set [1] (200 mg/kg, N 4) it was 0. In addition, the “Grade Index IV (number of animals)” value in data set [1] (25 mg/kg, N 6) is reported as 0; in data set [1] (50 mg/kg, N 6), 0; in data set [1] (setting [6]) it was 0; in data set [1] (200 mg/kg, N 4), 0. Moreover, the “Grade Index V” value worked out at 1 in data set [1] (25 mg/kg, N 6); 1 in data set [1] (50 mg/kg, N 6); 0 in data set [1] (setting [6]); 0 in data set [1] (200 mg/kg, N 4). Also, the “Grade Index G.I. mean ± S.E.” value in data set [1] (25 mg/kg, to the duodenum during pylorus ligation, 15 hours) came to 1.7 ± 0.7; in data set [1] (50 mg/kg, to the duodenum during pylorus ligation, 15 hours) it was 1.3 ± 0.8; in data set [1] (setting [5]) it was 0.0 ± 0.0; in data set [1] (200 mg/kg, to the duodenum during pylorus ligation, 15 hours), 0.0 ± 0.0. This compound gave an inhibition in vivo at 100 mg/kg in data set [2] of 83.5%. Also, the “action of inhibiting acid secretion (in words)” value in data set [2] (rat, in vivo) was “powerful action of inhibiting acid secretion”.

In data set [2], `CCNC(=O)C(C)=CCCC(C)=CCCC(C)=CCCC(C)=CCCC(C)=O` [Compound C] gave an inhibition in vivo at 100 mg/kg of 63.2%.

The compound `CC(=O)CCC=C(C)CCC=C(C)CCC=C(C)CCC=C(C)C(=O)N(C)C` [Compound D] showed an LD50 in data set [4] above 5000 mg/kg. This compound showed an inhibition in vivo at 100 mg/kg in data set [2] of 52.6%.

Compound `CC(=O)CCC=C(C)CCC=C(C)CCC=C(C)CCC=C(C)C(=O)N(CCO)CCO` [Compound E] gave an inhibition in vivo at 100 mg/kg in data set [2] of 52.2%.

For `CC(=O)CCC=C(C)CCC=C(C)CCC=C(C)CCC=C(C)C(=O)N1CCCC1` [Compound F, N-(2,6,10,14-tetramethyl-18-oxo-2,6,10,14-nonadecatetraenoyl)pyrrolidine], the “Inhibition (%) of ulcer index” value in data set [3] (setting [7]) was determined as 63.2%; in data set [3] (setting [8]), 94.8%; in data set [3] (setting [9]), 85.7%; in data set [3] (setting [10]), 97.1%. In addition, the “Ulcer Index Mean ± S.E. (mm)” value in data set [3] (setting [7]) was determined as 21.4 ± 8.2 mm; in data set [3] (setting [8]) it was 3.0 ± 1.9 mm; in data set [3] (setting [9]) it was 8.3 ± 3.4 mm; in data set [3] (setting [10]), 1.7 ± 0.9 mm. Besides, the LD50 in data set [4] was above 5000 mg/kg. In data set [2], this compound showed an inhibition in vivo at 100 mg/kg of 76.1%.

`CC(=O)CCC=C(C)CCC=C(C)CCC=C(C)CCC=C(C)C(=O)n1ccnc1` [Compound H] displayed an inhibition in vivo at 100 mg/kg in data set [2] of 49.1%.

As for `CC(=O)CCC=C(C)CCC=C(C)CCC=C(C)CCC=C(C)C(=O)N1CC=CC1` [Compound I], 100 mg/kg produced 43.9% inhibition in vivo in data set [2].

Regarding `CC(=O)CCC=C(C)CCC=C(C)CCC=C(C)CCC=C(C)CNC(C)=O` [Compound J], 100 mg/kg produced 53% inhibition in vivo in data set [2].

As to `CCC(=O)NCC(C)=CCCC(C)=CCCC(C)=CCCC(C)=CCCC(C)=O` [Compound K], testing at 100 mg/kg in data set [2] gave an inhibition in vivo of 50.2%.

In turn, `CCN(CC(C)=CCCC(C)=CCCC(C)=CCCC(C)=CCCC(C)=O)C(C)=O` [Compound L] showed an inhibition in vivo at 100 mg/kg in data set [2] of 62.6%.

Regarding `CCOC(=O)C=C(C)CCC=C(C)CCC=C(C)CCC=C(C)C(=O)N(CC)CC` [Compound M], the inhibition in vivo at 100 mg/kg in data set [2] is 80.6%.

`CC(C)[N+](C)(CCOC(=O)C1c2ccccc2Oc2ccccc21)C(C)C` [Propantheline bromide, reference compound]: in data set [1] (30 mg/kg, N 10), the “Grade Index 0 (number of animals)” value was found to be 8, the “Grade Index I (number of animals)” value is 2, the “Grade Index II (number of animals)” value worked out at 0 and the “Grade Index III (number of animals)” value is listed as 0. In addition, in data set [1] (30 mg/kg, N 10), the “Grade Index IV (number of animals)” value came out at 0 and the “Grade Index V” value was 0. Besides, the “Grade Index G.I. mean ± S.E.” value in data set [1] (30 mg/kg, 15 hours after pylorus ligation) was 0.2 ± 0.1.
